Experimental findings from patent US20230107642A1 (Erasca, Inc., priority 2020, published 2023) are described below.

The target in the test is T1, Cys12 of the KRAS 4B G12C protein (Homo sapiens, UniProt P01116, G12C).
T1 construct: This protein contained 188 amino acids in total, including an N-terminal 6-Histidine tag; made in house; host or cells: E. coli BL21
The test can be described thus: In vitro covalent adduct formation (CAF) assay, LC-MS intact mass. The class given is binding. To be noted: after 60 min. In a few lines:
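GDP-loaded (>95%) His-TEV-tagged KRAS 4B G12C (residues 1–169), 5 μM in TBS pH 7.4, incubated with 10 μM compound (4% DMSO) at 22° C for one hour. Intact-protein LC-MS gave free:adduct ratios, reported as percent protein modified; duplicate runs.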
With `C=CC(=O)N1CCN(c2nc(=O)n3c4c(c(-c5ccc(F)cc5)c(C(F)(F)F)cc24)SC[C@H](OCCOC)C3)CC1` [Example 1016, (R)-8-(4-acryloylpiperazin-1-yl)-11-(4-fluorophenyl)-3-(2-methoxyethoxy)-10-(trifluoromethyl)-3,4-dihydro-2H,6H-[1,4]thiazepino[2,3,4-ij]quinazolin-6-one], the “CAF (% binding after 60 min)” value came to 98%.
With `C=CC(=O)N1CCN(c2nc(=O)n3c4c(c(-c5ccc(F)cc5)c(C(F)(F)F)cc24)SC[C@@H](OCCOC)C3)CC1` [Example 1017, (S)-8-(4-acryloylpiperazin-1-yl)-11-(4-fluorophenyl)-3-(2-methoxyethoxy)-10-(trifluoromethyl)-3,4-dihydro-2H,6H-[1,4]thiazepino[2,3,4-ij]quinazolin-6-one], the “CAF (% binding after 60 min)” value is 98%.
To `C=CC(=O)N1CCN(c2nc(=O)n3c4c(c(-c5ccc(F)cc5F)c(C(F)(F)F)cc24)SC[C@H](OCCOC)C3)CC1` [Example 1018, (3R)-8-(4-acryloylpiperazin-1-yl)-11-(2,4-difluorophenyl)-3-(2-methoxyethoxy)-10-(trifluoromethyl)-3,4-dihydro-2H,6H-[1,4]thiazepino[2,3,4-ij]quinazolin-6-one] belongs 96%; to `C=CC(=O)N1CCN(c2nc(=O)n3c4c(c(-c5ccc(F)cc5F)c(C(F)(F)F)cc24)SC[C@@H](OCCOC)C3)CC1` [Example 1019, (3S)-8-(4-acryloylpiperazin-1-yl)-11-(2,4-difluorophenyl)-3-(2-methoxyethoxy)-10-(trifluoromethyl)-3,4-dihydro-2H,6H-[1,4]thiazepino[2,3,4-ij]quinazolin-6-one], 97%.
The result for `C=CC(=O)N1CCN(c2nc(=O)n3c4c(c(-c5ccc(F)c(Cl)c5)c(C(F)(F)F)cc24)SC[C@H](OCCOC)C3)CC1` [Example 1020, (R)-8-(4-acryloylpiperazin-1-yl)-11-(3-chloro-4-fluorophenyl)-3-(2-methoxyethoxy)-10-(trifluoromethyl)-3,4-dihydro-2H,6H-[1,4]thiazepino[2,3,4-ij]quinazolin-6-one] reads 97%.
To `C=CC(=O)N1CCN(c2nc(=O)n3c4c(c(-c5ccc(F)c(Cl)c5)c(C(F)(F)F)cc24)SC[C@@H](OCCOC)C3)CC1` [Example 1021, (S)-8-(4-acryloylpiperazin-1-yl)-11-(3-chloro-4-fluorophenyl)-3-(2-methoxyethoxy)-10-(trifluoromethyl)-3,4-dihydro-2H,6H-[1,4]thiazepino[2,3,4-ij]quinazolin-6-one] belongs 97%; to `C=CC(=O)N1CCN(c2nc(=O)n3c4c(c(-c5cc(Cl)c(F)cc5F)c(C(F)(F)F)cc24)SC[C@H](OCCOC)C3)CC1` [Example 1022, (3R)-8-(4-acryloylpiperazin-1-yl)-11-(5-chloro-2,4-difluorophenyl)-3-(2-methoxyethoxy)-10-(trifluoromethyl)-3,4-dihydro-2H,6H-[1,4]thiazepino[2,3,4-ij]quinazolin-6-one], 85%.
For the molecule `C=CC(=O)N1CCN(c2nc(=O)n3c4c(c(-c5cc(Cl)c(F)cc5F)c(C(F)(F)F)cc24)SC[C@@H](OCCOC)C3)CC1` [Example 1023, (3S)-8-(4-acryloylpiperazin-1-yl)-11-(5-chloro-2,4-difluorophenyl)-3-(2-methoxyethoxy)-10-(trifluoromethyl)-3,4-dihydro-2H,6H-[1,4]thiazepino[2,3,4-ij]quinazolin-6-one], the “CAF (% binding after 60 min)” value is on record as 97%.
As to `C=CC(=O)N1[C@H](C)CN(c2nc(=O)n3c4c(c(-c5ccc(F)cc5)c(C(F)(F)F)cc24)SC[C@H](OCCOC)C3)C[C@@H]1C` [Example 1024, (R)-8-((3S,5R)-4-acryloyl-3,5-dimethylpiperazin-1-yl)-11-(4-fluorophenyl)-3-(2-methoxyethoxy)-10-(trifluoromethyl)-3,4-dihydro-2H,6H-[1,4]thiazepino[2,3,4-ij]quinazolin-6-one], the “CAF (% binding after 60 min)” value is reported as 97%.
With `C=CC(=O)N1[C@H](C)CN(c2nc(=O)n3c4c(c(-c5ccc(F)cc5)c(C(F)(F)F)cc24)SC[C@@H](OCCOC)C3)C[C@@H]1C` [Example 1025, (S)-8-((3S,5R)-4-acryloyl-3,5-dimethylpiperazin-1-yl)-11-(4-fluorophenyl)-3-(2-methoxyethoxy)-10-(trifluoromethyl)-3,4-dihydro-2H,6H-[1,4]thiazepino[2,3,4-ij]quinazolin-6-one], the “CAF (% binding after 60 min)” value amounted to 96%.
The result for `C=CC(=O)N1[C@H](C)CN(c2nc(=O)n3c4c(c(-c5ccc(F)cc5F)c(C(F)(F)F)cc24)SC[C@H](OCCOC)C3)C[C@@H]1C` [Example 1026, (3R)-8-((3S,5R)-4-acryloyl-3,5-dimethylpiperazin-1-yl)-11-(2,4-difluorophenyl)-3-(2-methoxyethoxy)-10-(trifluoromethyl)-3,4-dihydro-2H,6H-[1,4]thiazepino[2,3,4-ij]quinazolin-6-one] reads 95%.
For `C=CC(=O)N1[C@H](C)CN(c2nc(=O)n3c4c(c(-c5ccc(F)cc5F)c(C(F)(F)F)cc24)SC[C@@H](OCCOC)C3)C[C@@H]1C` [Example 1027, (3S)-8-((3S,5R)-4-acryloyl-3,5-dimethylpiperazin-1-yl)-11-(2,4-difluorophenyl)-3-(2-methoxyethoxy)-10-(trifluoromethyl)-3,4-dihydro-2H,6H-[1,4]thiazepino[2,3,4-ij]quinazolin-6-one 3,4-dihydro-2H,6H-[1,4]thiazepino[2,3,4-ij]quinazolin-6-one], the “CAF (% binding after 60 min)” value was found to be 96%.
To `C=CC(=O)N1[C@H](C)CN(c2nc(=O)n3c4c(c(-c5ccc(F)c(Cl)c5)c(C(F)(F)F)cc24)SC[C@H](OCCOC)C3)C[C@@H]1C` [Example 1028, (R)-8-((3S,5R)-4-acryloyl-3,5-dimethylpiperazin-1-yl)-11-(3-chloro-4-fluorophenyl)-3-(2-methoxyethoxy)-10-(trifluoromethyl)-3,4-dihydro-2H,6H-[1,4]thiazepino[2,3,4-ij]quinazolin-6-one] belongs 96%; to `C=CC(=O)N1[C@H](C)CN(c2nc(=O)n3c4c(c(-c5ccc(F)c(Cl)c5)c(C(F)(F)F)cc24)SC[C@@H](OCCOC)C3)C[C@@H]1C` [Example 1029, (S)-8-((3S,5R)-4-acryloyl-3,5-dimethylpiperazin-1-yl)-11-(3-chloro-4-fluorophenyl)-3-(2-methoxyethoxy)-10-(trifluoromethyl)-3,4-dihydro-2H,6H-[1,4]thiazepino[2,3,4-ij]quinazolin-6-one], 96%; to `C=CC(=O)N1[C@H](C)CN(c2nc(=O)n3c4c(c(-c5cc(Cl)c(F)cc5F)c(C(F)(F)F)cc24)SC[C@H](OCCOC)C3)C[C@@H]1C` [Example 1030, (3R)-8-((3S,5R)-4-acryloyl-3,5-dimethylpiperazin-1-yl)-11-(5-chloro-2,4-difluorophenyl)-3-(2-methoxyethoxy)-10-(trifluoromethyl)-3,4-dihydro-2H,6H-[1,4]thiazepino[2,3,4-ij]quinazolin-6-one], 96%.
With `C=CC(=O)N1[C@H](C)CN(c2nc(=O)n3c4c(c(-c5cc(Cl)c(F)cc5F)c(C(F)(F)F)cc24)SC[C@@H](OCCOC)C3)C[C@@H]1C` [Example 1031, (3S)-8-((3S,5R)-4-acryloyl-3,5-dimethylpiperazin-1-yl)-11-(5-chloro-2,4-difluorophenyl)-3-(2-methoxyethoxy)-10-(trifluoromethyl)-3,4-dihydro-2H,6H-[1,4]thiazepino[2,3,4-ij]quinazolin-6-one], the “CAF (% binding after 60 min)” value was 95%.
The result for `C=CC(=O)N1[C@H](C)CN(c2nc(=O)n3c4c(c(-c5ccc(F)cc5)c(C(F)(F)F)cc24)SC[C@@H](N)C3)C[C@@H]1C` [Example 1032, (S)-8-((3S,5R)-4-acryloyl-3,5-dimethylpiperazin-1-yl)-3-amino-11-(4-fluorophenyl)-10-(trifluoromethyl)-3,4-dihydro-2H,6H-[1,4]thiazepino[2,3,4-ij]quinazolin-6-one] reads 92%; that for `C=CC(=O)N1[C@H](C)CN(c2nc(=O)n3c4c(c(-c5ccc(F)cc5)c(C(F)(F)F)cc24)SC[C@@H](OCCN(C)C)C3)C[C@@H]1C` [Example 1033, (S)-8-((3S,5R)-4-acryloyl-3,5-dimethylpiperazin-1-yl)-3-(2-(dimethylamino)ethoxy)-11-(4-fluorophenyl)-10-(trifluoromethyl)-3,4-dihydro-2H,6H-[1,4]thiazepino[2,3,4-ij]quinazolin-6-one], 96%; that for `C=CC(=O)N1[C@H](C)CN(c2nc(=O)n3c4c(c(-c5ccc(F)cc5F)c(C(F)(F)F)cc24)SC[C@@H](OCCN(C)C)C3)C[C@@H]1C` [Example 1034, (3S)-8-((3S,5R)-4-acryloyl-3,5-dimethylpiperazin-1-yl)-11-(2,4-difluorophenyl)-3-(2-(dimethylamino)ethoxy)-10-(trifluoromethyl)-3,4-dihydro-2H,6H-[1,4]thiazepino[2,3,4-ij]quinazolin-6-one], 97%.
To `C=CC(=O)N1[C@H](C)CN(c2nc(=O)n3c4c(c(-c5ccc(F)c(Cl)c5)c(C(F)(F)F)cc24)SC[C@@H](OCCN(C)C)C3)C[C@@H]1C` [Example 1035, (S)-8-((3S,5R)-4-acryloyl-3,5-dimethylpiperazin-1-yl)-11-(3-chloro-4-fluorophenyl)-3-(2-(dimethylamino)ethoxy)-10-(trifluoromethyl)-3,4-dihydro-2H,6H-[1,4]thiazepino[2,3,4-ij]quinazolin-6-one] belongs 97%.
